The source made the active and inactive calls. No cut-off for these calls is given here. A value given as a limit tells only on which side of the number the result lay.

Series [1] deals with T1, Rhodesain (Trypanosoma brucei rhodesiense, UniProt Q95PM0). Briefly: Inhibition of Trypanosoma brucei rhodesain assessed as fluorescence using Cbz-Phe-Arg-AMC as substrate measured at second inhibition step by fluorometric enzyme assays.
Series [2] concerns the target T2, Procathepsin L (Homo sapiens, UniProt P07711). Briefly: Inhibition of human liver CatL assessed as fluorescence using Cbz-Phe-Arg-AMC as substrate measured at second inhibition step by fluorometric enzyme assays.
For series [3], the system named is cathepsin L (CatL) versus rhodesain. The series is described as follows: Selectivity index, ratio of Ki for human liver CatL to Trypanosoma brucei rhodesain. Conditions: read-out: Selectivity Index.
Series [4] concerns the target T3, Cathepsin B (Homo sapiens, UniProt P07858). The series is described as follows: Inhibition of human liver CatB assessed as fluorescence using Cbz-Phe-Arg-AMC as substrate at 11 uM by fluorometric enzyme assays.
Series [5] addresses Rhodesain (Trypanosoma brucei rhodesiense) (UniProt Q95PM0). Briefly: Reversible inhibition of Trypanosoma brucei rhodesain assessed as fluorescence using Cbz-Phe-Arg-AMC as substrate by fluorometric enzyme assays.
Series [6] deals with T1, Rhodesain. The series is described as follows: Competitive inhibition of Trypanosoma brucei rhodesain assessed as fluorescence using Cbz-Phe-Arg-AMC as substrate by fluorometric enzyme assays.
In series [7] the target is Rhodesain (Trypanosoma brucei rhodesiense) (UniProt Q95PM0). The series is described as follows: Reversible inhibition of Trypanosoma brucei rhodesain assessed as reversibility using Cbz-Phe-Arg-AMC as substrate by dilution assay.
Rhodesain (Trypanosoma brucei rhodesiense), sequence (Q95PM0 1-450): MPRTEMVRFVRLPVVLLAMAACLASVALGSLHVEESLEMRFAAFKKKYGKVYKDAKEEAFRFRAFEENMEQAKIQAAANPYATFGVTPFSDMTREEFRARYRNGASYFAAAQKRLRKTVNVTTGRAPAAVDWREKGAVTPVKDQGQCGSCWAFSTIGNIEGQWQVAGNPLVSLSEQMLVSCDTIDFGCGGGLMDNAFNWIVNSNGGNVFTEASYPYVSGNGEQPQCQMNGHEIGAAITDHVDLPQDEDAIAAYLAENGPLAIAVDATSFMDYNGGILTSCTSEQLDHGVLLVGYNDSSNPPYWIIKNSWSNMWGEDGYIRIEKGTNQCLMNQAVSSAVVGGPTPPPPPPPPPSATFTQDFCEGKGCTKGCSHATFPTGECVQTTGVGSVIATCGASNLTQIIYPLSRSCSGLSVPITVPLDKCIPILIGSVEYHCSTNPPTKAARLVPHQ
Series [8] has the same target. The series is described as follows: Reversible inhibition of Trypanosoma brucei rhodesain assessed as reversibility by measuring residual enzymatic activity using Cbz-Phe-Arg-AMC as substrate after 1 hr by fluorometry based dialysis experiment relative to control.
The test system of series [9] is Trypanosoma brucei brucei. The series is described as follows: Antiprotozoal activity against Trypanosoma brucei brucei TC211 assessed as luminescence incubated for 24 to 48 hrs by ATPlite assay. The class given is functional, organism-based. (In general: In ATP-based viability assays light output follows the ATP content of the culture.)
The next series relates to HeLa. The series is described as follows: Cytotoxicity against human HeLa cells by Alamar blue assay. The series is classed as functional. Background: The colour change of resazurin is a common sign of viable cells or microbes.
The target in series [10] is Proteasome Macropain subunit (Homo sapiens) (UniProt P49721). Briefly: Inhibition of trypsin-like activity of human 20S proteasome at 11 uM using boc-Leu-Arg-Arg-AMC as fluorogenic substrate by microplate reader relative to control.
Proteasome Macropain subunit (Homo sapiens), sequence (P49721 whole entry): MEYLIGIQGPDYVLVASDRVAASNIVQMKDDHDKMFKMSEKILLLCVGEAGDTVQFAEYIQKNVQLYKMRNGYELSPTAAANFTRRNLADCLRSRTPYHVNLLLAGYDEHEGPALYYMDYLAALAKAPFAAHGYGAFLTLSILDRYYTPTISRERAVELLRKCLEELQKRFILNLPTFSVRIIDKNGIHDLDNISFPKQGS
The species entered for series [11] is Homo sapiens. Briefly: Inhibition of caspase-like activity of human 20S proteasome at 11 uM using Cbz-Leu-Leu-Glu-AMC as fluorogenic substrate by microplate reader relative to control.
Series [12] is filed under the species Homo sapiens. The series is described as follows: Inhibition of alpha-chymotrypsin-like activity of human 20S proteasome at 11 uM using Succ-Leu-Leu-Val-Tyr-AMC as fluorogenic substrate by microplate reader relative to control.
A further series has as its system Dengue virus. Briefly: Inhibition of Dengue virus NS2B-NS3 protease assessed as fluorescent emission using boc-Gly-Arg-Arg-AMC at 11 uM by microplate reader relative to control.
Series [13] relates to Trypanosoma brucei brucei. The series is described as follows: Antiprotozoal activity against Trypanosoma brucei brucei BS449 assessed as luminescence incubated for 24 to 48 hrs by ATPlite assay. The class given is functional, organism-based.
The test system of the next series is J774.1. The series is described as follows: Cytotoxicity against mouse J774.1 cells by Alamar blue assay. The class given is functional.
For series [14], the target named is T1, Rhodesain. Briefly: Inhibition of Trypanosoma brucei rhodesain assessed as fluorescence using Cbz-Phe-Arg-AMC as substrate measured using Dixon equation by fluorometric enzyme assays.
In series [15] the target is T2, Procathepsin L. Briefly: Inhibition of human CatL assessed as fluorescence using Cbz-Phe-Arg-AMC as substrate measured using Dixon equation by fluorometric enzyme assays. Set-up: species or system Liver.
Series [16] has as its target Rhodesain (Trypanosoma brucei rhodesiense) (UniProt Q95PM0). Briefly: Inhibition of Trypanosoma brucei rhodesain assessed as rate constant of association using Cbz-Phe-Arg-AMC as substrate by fluorometric enzyme assays.
Series [17] has the same target. Briefly: Inhibition of Trypanosoma brucei rhodesain assessed as rate constant of dissociation of the final complex using Cbz-Phe-Arg-AMC as substrate by fluorometric enzyme assays.
Series [18] deals with T3, Cathepsin B. The series is described as follows: Inhibition of human liver CatB assessed as fluorescence using Cbz-Phe-Arg-AMC as substrate by fluorometric enzyme assays.
For series [19], the target named is Rhodesain (Trypanosoma brucei rhodesiense) (UniProt Q95PM0). Briefly: Binding affinity to Trypanosoma brucei rhodesain assessed as protein-ligand adducts by MALDI-TOF MS analysis.

T1 sequence (Q95PM0 whole entry): as the sequence (Q95PM0 1-450) above
T2 sequence (P07711 whole entry): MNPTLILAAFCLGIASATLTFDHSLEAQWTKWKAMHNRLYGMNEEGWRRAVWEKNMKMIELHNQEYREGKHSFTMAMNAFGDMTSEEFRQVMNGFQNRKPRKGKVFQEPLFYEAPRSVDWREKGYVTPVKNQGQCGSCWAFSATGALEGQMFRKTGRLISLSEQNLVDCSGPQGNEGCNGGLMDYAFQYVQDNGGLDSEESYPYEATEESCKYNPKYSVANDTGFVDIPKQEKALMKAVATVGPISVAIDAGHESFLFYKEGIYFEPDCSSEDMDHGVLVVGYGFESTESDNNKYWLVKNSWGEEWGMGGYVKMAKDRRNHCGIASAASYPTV

In general, Ki refers to the equilibrium dissociation constant of an inhibitor or competing ligand from its target. As a reminder, the inhibition is the drop in the measured response relative to a control, in per cent. By EC50 is commonly meant the concentration that produces a half-maximal response. One may read the CC50 as the concentration giving 50% cytotoxicity. `Cc1ccc(C[C@H](NC(=O)c2ccncc2)C(=O)N[C@H](/C=C(\F)S(=O)(=O)Cc2ccccc2)CCc2ccccc2)cc1`: the values for the Ki on Rhodesain [1], on Procathepsin L [2] and on Rhodesain [6] were 0.015 µM, 0.181 µM and 0.025 µM, respectively. Further, in series [3], the selectivity ratio was found to be 12. Besides, at Cathepsin B [4], the inhibition amounted to 35%. Besides, the result in series [5] and in series [7] was Active. In addition, the Activity in series [8] came to 47%. Besides, the EC50 in [9] is 1.4 µM. The same compound yielded a CC50 in the series on HeLa of more than 100 µM. Further, the inhibition entry (in [10]; in the series filed under Homo sapiens [11]; in the series listed under Homo sapiens [12]; with Dengue virus) was “inactive” in each case.
Regarding `O=C(N[C@@H](Cc1ccccc1)C(=O)N[C@H](/C=C(\F)S(=O)(=O)c1ccccc1)CCc1ccccc1)c1ccncc1`, the outcome in series [5] and in series [7] was Active. The Ki at Rhodesain [6] stood at 0.047 µM. Also, the EC50 in series [13] was determined as 3 µM. The CC50 in the series with J774.1 and in the series on HeLa was more than 100 µM each time. For the same compound, the inhibition result (in series [10]; in the series with Dengue virus) was “inactive” in each case. The inhibition is 41% in the series filed under Homo sapiens [11] and 10% in the series listed under Homo sapiens [12].
As for `Cc1ccc(C[C@H](NC(=O)c2ccncc2)C(=O)N[C@H](/C=C(\F)S(=O)(=O)Oc2ccccc2)CCc2ccccc2)cc1`, the inhibition constant (Ki) at Rhodesain [1] came out at 0.024 µM; on Rhodesain [14], 0.003 µM; on Procathepsin L [2], 0.313 µM; at Procathepsin L [15] it was 0.078 µM. In addition, in [3], the selectivity ratio is 26. In addition, the inhibition at Cathepsin B [4] amounted to 38%; in [10], 10%; in the series filed under Homo sapiens [11] it was 44%; in the series filed under Homo sapiens [12], 20%. The K in series [16] came to 0.075 s⁻¹; in series [17], 0.01 s⁻¹. The Activity in [8] turned out to be 89%. The EC50 in series [9] is 1.9 µM. The compound further displayed a CC50 in the series with HeLa of more than 100 µM. Also, the inhibition result with Dengue virus was “inactive”.
For the compound `O=C(N[C@@H](Cc1ccccc1)C(=O)N[C@H](/C=C(\F)S(=O)(=O)Oc1ccccc1)CCc1ccccc1)c1ccncc1`, the Ki was determined as 0.098 µM on Rhodesain [1]; 0.015 µM at Rhodesain [14]; 0.258 µM at Procathepsin L [2]; 0.06 µM on Procathepsin L [15]; 1.7 µM on Cathepsin B [18]. Besides, the selectivity ratio in [3] came out at 4. Besides, the K in series [16] was 0.055 s⁻¹; in series [17], 0.01 s⁻¹. Moreover, in [19], the outcome was Active. The EC50 in series [13] turned out to be 4.8 µM. Also, the CC50 in the series with HeLa is more than 100 µM. Also, the inhibition result (in [10]; with Dengue virus) was “inactive” in each case. Further, the inhibition in the series filed under Homo sapiens [11] is 22%; in the series listed under Homo sapiens [12], 11%.
For the compound `CSCC[C@@H](/C=C(\F)S(=O)(=O)c1ccccc1)NC(=O)[C@H](Cc1ccccc1)NC(=O)c1ccncc1`, the values for the Ki at Rhodesain [1], at Procathepsin L [2] and at Cathepsin B [18] were 0.056 µM, 0.577 µM and 1 µM, respectively. Besides, the selectivity ratio in [3] amounted to 10.

The values above are taken from ChEMBL document CHEMBL4831511, “Fluorovinylsulfones and -Sulfonates as Potent Covalent Reversible Inhibitors of the Trypanosomal Cysteine Protease Rhodesain: Structure-Activity Relationship, Inhibition Mechanism, Metabolism, and In Vivo Studies” (J Med Chem, 2021).
